The target in test [1] is T1, BChE from equine serum (EqBChE) (Equus caballus, UniProt P81908).
T1 construct: BChE from equine serum; purchased Merck (Prague, Czech Republic); host or cells: equine serum (natural source)
The settings on record: parent N-alkyl-2-[4-(trifluoromethyl)benzoyl]hydrazine-1-carboxamides; cited from earlier work.

For test [2], the target named is T1, BChE from equine serum (EqBChE). The test can be described thus: biochemical. It counts as biochemical. The settings on record: for IC50: equine serum BChE, mean ± SD from three independent experiments. From the text: (§1) Hydrazinecarboxamides 1–3 were examined in vitro for their potential to inhibit the function of AChE (obtained from electric eel) and BChE from equine serum using Ellman’s spectrophotometric method (Table 2). The activities are expressed as IC50 values, i.e., concentrations leading to 50% inhibition of enzymatic activity. Based on the IC50 values for AChE and BChE, we calculated selectivity indexes (SI) that quantified the selectivity for each cholinesterase. SI is the ratio of IC50 for BChE/IC50 for AChE.
(§2) The enzyme activity in the final reaction mixture (2000 µL) was 0.2 U/mL, the concentration of ATCh (or BTCh) was 40 µM, and the concentration of DTNB was 100 µM for all reactions. The investigated derivatives were dissolved in DMSO and then diluted with demineralized water (conductivity 3 μS, equipment supplier BKG Water Treatment, Hradec Králové, Czech Republic) to a concentration of 1000 µM. Five different inhibitor concentrations were used for all tested compounds in the final reaction mixture. The final concentration of DMSO was 0.2%. All experiments were performed in triplicate. The average values of the reaction rate (v0-uninhibited reaction, vi-inhibited reaction) were used to construct the dependence of v0/vi on the concentration of inhibitors. IC50 values were calculated from obtained regression curve equations.
(§3) Acetylcholinesterase originating from electric eels (Electrophorus electricus L.; EeAChE) and butyrylcholinesterase obtained from equine serum (EqBChE) were used.

The target of test [3] is T2, AChE (obtained from electric eel; EeAChE) (Electrophorus electricus, UniProt O42275).
T2 construct: AChE (obtained from electric eel); purchased Merck (Prague, Czech Republic); host or cells: electric eel (natural source)
T2 sequence (O42275 24-633): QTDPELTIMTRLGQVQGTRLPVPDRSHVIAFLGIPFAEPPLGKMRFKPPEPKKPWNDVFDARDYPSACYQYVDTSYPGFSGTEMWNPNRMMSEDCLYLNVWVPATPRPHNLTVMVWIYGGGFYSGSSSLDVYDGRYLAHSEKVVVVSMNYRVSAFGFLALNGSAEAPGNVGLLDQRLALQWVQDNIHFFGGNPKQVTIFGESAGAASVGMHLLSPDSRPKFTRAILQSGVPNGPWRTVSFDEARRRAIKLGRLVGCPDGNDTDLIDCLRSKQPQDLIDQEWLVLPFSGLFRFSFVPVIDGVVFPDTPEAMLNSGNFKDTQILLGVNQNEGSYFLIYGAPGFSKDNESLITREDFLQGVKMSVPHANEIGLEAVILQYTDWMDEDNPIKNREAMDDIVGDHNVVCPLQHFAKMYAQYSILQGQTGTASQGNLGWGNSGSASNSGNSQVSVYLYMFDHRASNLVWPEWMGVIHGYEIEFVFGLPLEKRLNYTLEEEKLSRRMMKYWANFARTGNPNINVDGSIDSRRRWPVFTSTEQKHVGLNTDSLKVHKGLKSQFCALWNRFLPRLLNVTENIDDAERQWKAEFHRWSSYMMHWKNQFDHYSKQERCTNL
As to the kind of experiment: biochemical. Type of test: biochemical. As to conditions: for Selectivity BChE/AChE: SI = ratio of IC50 for BChE/IC50 for AChE, above 1 = stronger inhibition of AChE; for IC50: electric eel AChE, mean ± SD from three independent experiments.
Source text: as §1, §2, §3

Like-named read-outs stand apart in the source and are kept apart here. A value given as a limit tells only on which side of the number the result lay.

For orientation: IC50 means the point on the concentration scale where inhibition reaches its midpoint.

T1 sequence (P81908 whole entry): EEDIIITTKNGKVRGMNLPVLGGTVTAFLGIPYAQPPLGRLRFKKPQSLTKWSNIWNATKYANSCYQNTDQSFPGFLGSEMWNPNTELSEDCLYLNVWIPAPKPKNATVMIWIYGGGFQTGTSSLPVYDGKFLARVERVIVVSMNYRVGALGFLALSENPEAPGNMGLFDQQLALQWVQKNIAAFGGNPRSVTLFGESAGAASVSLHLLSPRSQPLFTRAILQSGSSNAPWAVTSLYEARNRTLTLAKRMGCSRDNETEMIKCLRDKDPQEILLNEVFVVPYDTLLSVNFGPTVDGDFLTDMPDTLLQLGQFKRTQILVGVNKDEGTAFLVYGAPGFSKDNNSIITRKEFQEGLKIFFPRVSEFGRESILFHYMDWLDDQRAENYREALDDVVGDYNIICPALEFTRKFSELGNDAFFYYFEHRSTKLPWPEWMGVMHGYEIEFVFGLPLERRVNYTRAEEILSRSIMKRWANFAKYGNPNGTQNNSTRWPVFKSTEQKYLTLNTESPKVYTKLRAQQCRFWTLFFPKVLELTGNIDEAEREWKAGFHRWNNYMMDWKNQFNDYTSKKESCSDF

In the case of `CCCCCCCCCCCCCNC(=O)NNC(=O)c1ccc(C(F)(F)F)cc1` [P2], the IC50 in test [1] was 277 ± 10.3 µM.

As for `CCCCCCCCCCCCCNC(=O)NNC(=O)c1ccc(C)cc1` [1p, 2-(4-Methylbenzoyl)-N-tridecylhydrazine-1-carboxamide], the figures for the IC50 in test [2] and in test [3] were 277 ± 6.5 µM and 100 ± 2.1 µM, respectively. Moreover, the “Selectivity BChE/AChE” value in test [3] is 2.8.

Regarding `CNC(=O)NNC(=O)Cc1ccc(C(F)(F)F)cc1` [3a, N-Methyl-2-{2-[4-(trifluoromethyl)phenyl]acetyl}hydrazine-1-carboxamide], the half-inhibitory concentration (IC50) in test [2] came to 131 ± 9.7 µM. Moreover, in test [3], the “Selectivity BChE/AChE” value is 1.9 and 68.51 ± 0.25 µM corresponded to half-maximal inhibition (IC50).

In test [2], `CNC(=O)NNC(=O)c1ccccc1[N+](=O)[O-]` [2g, N-Methyl-2-(2-nitrobenzoyl)hydrazine-1-carboxamide] gave an IC50 of 191 ± 10.1 µM. Further, in test [3], the “Selectivity BChE/AChE” value stood at 3.0 and half-maximal inhibition (IC50) was put at 64.3 ± 2.23 µM.

In test [2], `CNC(=O)NNC(=O)c1ccc(C(C)(C)C)cc1` [1q] showed a concentration for half-maximal inhibition (IC50) of 281 ± 7.79 µM. For the same compound, in test [3], the “Selectivity BChE/AChE” value stood at 4.7 and the IC50 was found to be 60 ± 2.47 µM.

As to `CCCCCCCCCCCCCNC(=O)NNC(=O)c1cccc(Br)c1` [2j, 2-(3-Bromobenzoyl)-N-tridecylhydrazine-1-carboxamide], the IC50 in test [2] was more than 500 µM. Also, in test [3], the “Selectivity BChE/AChE” value is on record as more than 11.3 and half-maximal inhibition (IC50) required 44.34 ± 0.1 µM.

The compound `CCCCCCCCCCCCCNC(=O)NNC(=O)c1ccc(Oc2ccccc2)cc1` [1x, 2-(4-Phenoxybenzoyl)-N-tridecylhydrazine-1-carboxamide] gave a 50% inhibitory concentration (IC50) in test [2] of 368 ± 14.3 µM. For the same compound, in test [3], the “Selectivity BChE/AChE” value amounted to 6.3 and it took 58.3 ± 3.29 µM to reach half-maximal inhibition (IC50).

Compound `CCCCCCCCCCCCCNC(=O)NNC(=O)c1ccc(N(C)C)cc1` [1z, 2-[4-(Dimethylamino)benzoyl]-N-tridecylhydrazine-1-carboxamide] yielded an IC50 in test [2] of 188 ± 2.22 µM. Moreover, in test [3], the “Selectivity BChE/AChE” value is 2.1 and the IC50 amounted to 87.67 ± 0.83 µM.

With `CCCCCCCCCCCCCNC(=O)NNC(=O)c1ccc(I)cc1` [1j, 2-(4-Iodobenzoyl)-N-tridecylhydrazine-1-carboxamide], the 50% inhibitory concentration (IC50) in test [2] came to 192 ± 3.45 µM; in test [3], 79.7 ± 2.08 µM. Also, the “Selectivity BChE/AChE” value in test [3] is given as 2.4.

On to `CCCCCCCCCCCCCNC(=O)NNC(=O)c1ccccc1[N+](=O)[O-]` [2h, 2-(2-Nitrobenzoyl)-N-tridecylhydrazine-1-carboxamide], for which the IC50 in test [2] is more than 500 µM; in test [3] it was 54.9 ± 1.08 µM. The “Selectivity BChE/AChE” value in test [3] is recorded as more than 9.1.

Turning to `CCCCCCCCCCCCCNC(=O)NNC(=O)c1ccc(Cl)cc1` [1f, 2-(4-Chlorobenzoyl)-N-tridecylhydrazine-1-carboxamide], the values for the IC50 in test [2] and in test [3] were 88.7 ± 3.28 µM and 86.59 ± 0.29 µM, respectively. The “Selectivity BChE/AChE” value in test [3] worked out at 1.0.

Consider `CCCCCCCCCCCCCNC(=O)NNC(=O)c1ccc(C(C)(C)C)cc1` [1r], for which the IC50 in test [2] was 57.24 ± 0.23 µM. In addition, in test [3], the “Selectivity BChE/AChE” value is given as 0.8 and the concentration for half-maximal inhibition (IC50) was determined as 75.25 ± 0.43 µM.

`CNC(=O)NNC(=O)c1ccc(F)cc1` [1c, 2-(4-Fluorobenzoyl)-N-methylhydrazine-1-carboxamide] had an IC50 in test [2] of 366 ± 78.4 µM. In addition, in test [3], the “Selectivity BChE/AChE” value is reported as 6.4 and the IC50 was 57.2 ± 1.66 µM.

For the compound `CNC(=O)NNC(=O)c1ccccc1Br` [2k, 2-(2-Bromobenzoyl)-N-methylhydrazine-1-carboxamide], the IC50 in test [2] was more than 500 µM. In addition, in test [3], the “Selectivity BChE/AChE” value is reported as more than 8.4 and the half-inhibitory concentration (IC50) is 59.4 ± 1.83 µM.

For the compound `CCCCCCCCCCCCCNC(=O)NNC(=O)c1ccc([N+](=O)[O-])cc1` [1l, 2-(4-Nitrobenzoyl)-N-tridecylhydrazine-1-carboxamide], the IC50 was found to be 22.31 ± 0.09 µM in test [2] and 53.7 ± 1.2 µM in test [3]. The “Fold superiority of BChE inhibition over parent compound P2” value in test [2] (vs. P2) worked out at 12.4 ×. Further, the “Selectivity BChE/AChE” value in test [3] stood at 0.4.

In the case of `CCCCCCCCCCCCCNC(=O)NNC(=O)c1ccc(-c2ccccc2)cc1` [1t, 2-(4-Phenylbenzoyl)-N-tridecylhydrazine-1-carboxamide], the concentration for half-maximal inhibition (IC50) in test [2] is 32.1 ± 0.18 µM; in test [3], 51.1 ± 0.98 µM. For the same compound, the “Selectivity BChE/AChE” value in test [3] is on record as 0.6.

The values above are taken from publication PMC9962224, “Novel Inhibitors of Acetyl- and Butyrylcholinesterase Derived from Benzohydrazides: Synthesis, Evaluation and Docking Study” (Pharmaceuticals, 2023).
